A value given as a limit tells only on which side of the number the result lay.

As usually defined, the IC50 is the concentration at which inhibition is half-maximal.

This assay has as its system MCF7. Description: Compound was tested for antiproliferative activity against human breast cancer cell line MCF-7 in MTT assay. In kind it is functional, cell-based. For orientation: Formazan colour is commonly taken as a measure of viable cells.
For `CC(=O)Oc1c(C)c(C)c2c(c1C)CC[C@@](C)(CCC[C@H](C)CCC[C@H](C)CCCC(C)C)O2`, the IC50 is more than 500 µM.

Take `CCCCC(=O)OCC1(C)CCc2c(C)c(OC(=O)[C@@H](N)CCCCN)c(C)c(C)c2O1` (some centres undefined): the IC50 is 15 µM.

Take `Cc1c(C)c2c(c(C)c1OC(=O)[C@@H](N)CCCCN)CC[C@@](C)(CCC[C@H](C)CCC[C@H](C)CCCC(C)C)O2`: the IC50 worked out at 12 µM.

As to `CCCCCOCC1(C)CCc2c(C)c(OC(=O)[C@@H](N)CCCCN)c(C)c(C)c2O1` (some centres undefined), it took 22 µM to reach half-maximal inhibition (IC50).

`Cc1c(C)c2c(c(C)c1OC(=O)[C@@H](N)CCCCN)CCC(C)(CO)O2` (some centres undefined) gave an IC50 of 194 µM.

As to `Cc1c(C)c2c(c(C)c1OC(=O)[C@@H](N)CCCCN)CCC(C)(COC(=O)CCC(C)[C@H]1CC[C@H]3[C@@H]4[C@H](O)C[C@@H]5C[C@H](O)CC[C@]5(C)[C@H]4C[C@H](O)[C@]13C)O2` (some centres undefined), the IC50 was determined as 4 µM.

`Cc1c(C)c2c(c(C)c1OC(=O)CCC(=O)O)CC[C@@](C)(CCC[C@H](C)CCC[C@H](C)CCCC(C)C)O2` [(+)-ALPHA-TOCOPHERYL SUCCINATE]: the IC50 was more than 368 µM.

`Cc1c(C)c2c(c(C)c1O)CC[C@@](C)(CCC[C@H](C)CCC[C@H](C)CCCC(C)C)O2` [ALPHA-TOCOPHEROL] gave a concentration for half-maximal inhibition (IC50) of 329 µM.

Molecule `Cc1c(C)c2c(c(C)c1O)CCC(C)(C(=O)O)O2` (centres undefined) [TROLOX] gave an IC50 of 1460 µM.
